According to patent publication US8354498B2, “CD4 mimic peptides and their uses” (Commissariat a l'Energie Atomique, priority 2006, dated 2013):
Read-outs that look alike come from different tables or passages of the source.

What was measured:
Type in all cases: cell-based
[1] = system: HIV-1 pseudovirus Ba-L; assay: HIV single cycle pseudovirus assay in GHOST cells; settings: read-out: antiviral activity EC50
Protocol: (§1) For single-cycle infection experiments, HIV pseudoviruses representative of different HIV-1 subtypes were produced by co-transfection of 2×10^5 HEK293 (American Type Culture Collection) derived cells expressing the SV40 T antigen (HEK293 T), using the calcium phosphate method (ProFection® mammalian transfection system; PROMEGA). To this end, 1 μg of an HIV-1 env expressing vector under control of a CMV promoter, derived from pcDNA4/TO backbone vector (INVITROGEN) and 400 ng of the HIV-1 genomic vector (pNL4-3.Luc R^−E^−; National Institutes of Health AIDS Research and Reference Reagent program; catalogue number 3418), under control of the LTR promoter were used. pNL4-3.Luc R^−E^− contains the whole HIV genome, including a packaging signal, but has a frameshift in the env and vpr genes rendering it non-infectious. Furthermore a luciferase reporter gene replaces the nef gene. After 24 h, the medium was replaced with medium containing 1 mM sodium butyrate (SIGMA-ALDRICH) and the cells were further incubated for an additional 24 h. Afterwards, the supernatant with the pseudovirus was harvested, filtered (Millex 0.45 μm filters, MILLIPORE) and after adding Fetal calf serum (FCS; 10%) stored at −80° C. Pseudoviruses of different HIV-1 subtypes were created, including pseudoviruses derived from the subtype B, CCR5 co-receptor using strains Ba-L and SF162; the subtype B, CXCR4 co-receptor using strains Mn; the subtype C, CCR5 co-receptor using strains VI829, VI1358 and MJ4 and the CRF01_AE, CXCR4 co-receptor using strain CA10-3.
(§2) Fifty microliters of HIV pseudovirus were pre-incubated with 50 μl of a dilution series of a CD4 miniprotein or reference compound. After 15 minutes, 100 μl of GHOST target cells (AIDS REFERENCE AND REAGENT PROGRAM; 1.2×10^5 cells/ml) expressing CD4 and either of the HIV co-receptors CCR5 or CXCR4 were added to the 96-well cups containing the pre-treated pseudovirus. The GHOST cells were lysed 48 h post-infection by addition of the luciferin substrate (SteadyLite HTS, PERKIN ELMER LIFE SCIENCES). The resulting light signal, expressed as relative lights units (RLU), was quantified in a luminometer (Top Count™, CANBERRA-PACKARD).

[2] = system: HIV-1 pseudovirus CA10-3; assay: HIV single cycle pseudovirus assay in GHOST cells; settings: read-out: antiviral activity EC50
Protocol: as §1, §2

[3] = system: HIV-1 pseudovirus MJ4; assay: HIV single cycle pseudovirus assay in GHOST cells; settings: read-out: antiviral activity EC50
Protocol: as §1, §2

[4] = system: HIV-1 pseudovirus Mn; assay: HIV single cycle pseudovirus assay in GHOST cells; settings: read-out: antiviral activity EC50
Protocol: as §1, §2

[5] = system: HIV-1 pseudovirus SF162; assay: HIV single cycle pseudovirus assay in GHOST cells; settings: read-out: antiviral activity EC50
Protocol: as §1, §2

[6] = system: HIV-1 pseudovirus VI1358; assay: HIV single cycle pseudovirus assay in GHOST cells; settings: read-out: antiviral activity EC50
Protocol: as §1, §2

[7] = system: HIV-1 pseudovirus VI829; assay: HIV single cycle pseudovirus assay in GHOST cells; settings: read-out: antiviral activity EC50
Protocol: as §1, §2

[8] = system: HIV-1 Ba-L; assay: Dendritic cells assay: MO-DC/CD4+ T cell co-cultures, replication competent virus; settings: for EC50: Human immunodeficiency virus 1, BAL
Protocol: Dendritic cell experiments were preformed with the replication-competent CCR5 co-receptor, using non-syncytium inducing, subtype B HIV-1 strain Ba-L whose infectious titer was determined on cultures of PHA/IL-2 stimulated PBMC.
Monocytes were separated from the buffy-coats of HIV seronegative blood donors by counter-flow elutriation and E-rosetting. They were subsequently differentiated to monocyte-derived dendritic cells (MO-DC) using GM-CSF and IL-4. […] After 30 minutes, 100 μl of MO-DC were added (4×10^5 cells/ml) and incubated for 2 h (37° C., 5% CO2). Afterwards, cells were washed 3 times and autologous CD4+ T cells were added, in the presence of compound. Co-cultures were incubated for 24 h, after which the cells were washed again (3 times) to remove the compound. Cells were incubated during 14 days of primary culture, during which half of the culture medium was refreshed twice weekly, without compound. At day 14, cultures were washed and PHA/IL-2 activated PBMC were added (2×10^5 cells/cup) to detect any latent or subliminal infection during a supplementary 14 days of secondary culture. Culture supernatants of primary (day 7 and day 14) and secondary (day 28) cultures were analyzed for the presence of HIV p24 Ag by a monoclonal p24 antibody (HuMab-HIVp24; BIOMARIC NV) enzyme-linked immunosorbant assay (ELISA).
Importantly, the replication-competent HIV-1 Ba-L reference strain, was used for these experiments. The virus was shortly pre-incubated with a dilution range of one of the compounds before addition of the MO-DC target cells. The compound remained present during infection and during the first 24 h of the co-culture of the MO-DC with the autologous CD4^+ T cells, but was washed away afterwards.

**Q.** Which results are given for `Cc1cc(C)c(Nc2ccnc(Nc3ccc(C#N)cc3)n2)c(C)c1` [TMC120]?
**A.** EC50 [1]: 1.5 nM; EC50 [2]: 1.5 nM; EC50 [3]: 1.5 nM; EC50 [4]: 1.8 nM; EC50 [5]: 0.9 nM; EC50 [6]: 0.6 nM; EC50 [7]: 1.2 nM; EC50 ([8]; 168 h, Day 7, read-out: EC50, primary culture, Day 7): 3 nM; EC50 ([8]; 336 h, Day 14, read-out: EC50, primary culture, Day 14): 3 nM; Cmin, secondary culture, Day 28 (minimal concentration blocking infection) ([8]; confirmed at Day 28): 100 nM
